The subject of the assay is CEM cells HIV-1 protection, formazan growth assay. Description: NCI AIDS Antiviral Assay. The settings on record: for pIC50: measured here: growth of uninfected CEM cells. An outline of the steps: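 CEM (human) cells, HIV-1 infected vs uninfected, 5-point dosing, formazan growth read-out. Retest threshold 50% protection.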

pEC50, pIC50: −log10 of the molar value. Activity calls are given as the source filed them.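 Rule for the calls: active = compounds giving half or more protection of infected cells from virus-caused growth loss, again on retest; inactive = the rest.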

What is called pEC50 is −log10 of the EC50, conventionally taken in molar units. The pIC50 is the IC50 on a negative log10 scale, so that one unit is a factor of ten. A high value points to a low IC50.

On to `c1ccc(OCc2nnc3n2N=C(c2ccccc2)CS3)cc1`, for which the outcome was inactive.
On the same count and under the same terms, the entry for `CC(=O)O[C@H]1CCC2[C@@H]3CC[C@]4(C)CC(=O)C=C[C@]4(C)C3CC[C@@]21C` (some centres undefined) is “inactive”.
Take `NC(CSS(=O)(=O)O)=NCc1cccs1`: the pEC50 was less than 3.70 and the pIC50 is less than 4.00.
On the same counts, the results for `CC(=C/c1ccccc1)/C=C1/SC(=S)N(C=C2C(=O)NC(=O)NC2=O)C1=O` are less than 3.70 and 4.22.
For `CCN(CC)CCC12CC(C)OC1=Nc1ccccc1NC2=O` (centres undefined), the pEC50 is less than 3.70 and the pIC50 was less than 3.70.
For the compound `C[C@@H]1CC[C@@]2(OC1)O[C@H]1C[C@H]3[C@@H]4CC[C@H]5C[C@@H](OC6OC(CO)C(OC7OC(CO)C(O)C(OC8OCC(O)C(O)C8O)C7OC7OC(CO)C(O)C(O)C7O)C(O)C6O)[C@H](O)C[C@]5(C)[C@H]4CC[C@]3(C)[C@H]1[C@@H]2C` (some centres undefined), the pEC50 was less than 5.70 and the pIC50 was 6.00.
With `CCn1c(=O)c(N=O)c(N)n(CC(C)O)c1=O` (centres undefined), the pEC50 was less than 3.70 and the pIC50 was less than 3.70.
Consider `COc1ccc(-c2c(C#N)c(S)n(C3OC(COC(C)=O)C(OC(C)=O)C(OC(C)=O)C3OC(C)=O)c(=O)c2C#N)cc1` (centres undefined), for which the pEC50 is less than 3.70 and the pIC50 is less than 3.70.
For the compound `N#[N+]C1=NC2C(=O)NC=NC2=N1` (centres undefined), the pEC50 is less than 4.08 and the pIC50 is less than 4.08.
As to `CCOC(=O)Cc1csc(N=Nc2c(O)[nH]c3ccccc23)n1`, the pEC50 is less than 3.70 and the pIC50 is 3.96.
Take `CC1(C)C=N[N+]2(C)C3C=CC(CC3)C12` (centres undefined): the outcome was inactive.
Still for that read-out and setting: the entry for `Cc1cc(C)nc(NS(=O)(=O)c2ccc(NC(=O)c3cccn4c(=O)c5ccccc5nc34)cc2)n1` is “inactive”.
With `Cc1nc2c(=O)n(C)c(=O)n(C)c2o1`, the pEC50 was less than 3.70 and the pIC50 is less than 3.70.
Consider `[Br][Ni][Br].[NH-]CC[NH-].[NH-]CC[NH-]`, for which the pEC50 was less than 3.70 and the pIC50 is 4.17.
Take `CS(=O)(=O)NNS(=O)(=O)c1ccccc1`: the pEC50 is less than 4.12 and the pIC50 was less than 4.12.
In the case of `Cc1cc(=O)[nH]c(NN2C(Cl)C(=O)C2c2c(O)ccc3ccccc23)n1` (centres undefined), the pEC50 is less than 3.74 and the negative-log IC50 (pIC50) was 4.62.
For the compound `N#Cc1c(-c2ccc(Cl)cc2Cl)nc2[nH][nH]c(=S)n2c1=O`, the pEC50 was less than 4.00 and the pIC50 was less than 4.00.
For the compound `Nc1nc(Cl)c2ncn(C3CC=C(CO)CC3)c2n1` (centres undefined), the pEC50 is less than 3.05 and the pIC50 was 4.29.
On the same counts, the results for `CCCCOC(=O)CSSCC(=O)OCCCC` are less than 3.70 and 4.29.
On the same counts, the results for `Nc1cc(C(=O)Nc2ccc(C3=NCCN3)cc2)cc(C(=O)Nc2ccc(C3=NCCN3)cc2)c1` are 4.79 and 3.84.
For the compound `COc1ccc2c(c1)CCc1c-2n(CCN2CCOCC2)c2ccc(OC)cc12`, the pEC50 was less than 3.70 and the pIC50 was 3.78.
On the same counts, the results for `CC(=O)c1cccc(NC(=O)Nc2cccc(C)n2)c1` are less than 4.25 and 5.16.
Consider `Cc1cc(S(=O)(=O)O)c(NC(=O)c2oc3cc(O)ccc3c(=O)c2C)cc1Cl`, for which the pEC50 was less than 3.23 and the pIC50 is less than 3.23.
`CC1(C)CCc2cc3c(cc2O1)OC(C)(C)C1c2c(ccc4c2CCC(C)(C)O4)OC31` (centres undefined): the result was inactive.
Consider `O=C(CC(c1ccccc1)C(Sc1ccccc1)(Sc1ccccc1)Sc1ccccc1)c1ccccc1` (centres undefined), for which the pEC50 was less than 4.00 and the pIC50 was less than 4.00.
As for `CC1C(=O)CC[C@@]2(C)C(=O)CCCC12O` (some centres undefined), the outcome was inactive.
In the case of `CCOC(=O)CNC(=O)c1cccc2c(Nc3ccc(S(=O)(=O)Nc4cc(C)on4)cc3)c3ccccc3nc12`, the pEC50 is less than 3.70 and the pIC50 is 4.91.
The matching figures for `COC(=O)CC1CN(C(=O)OCc2ccccc2)C(C)(C)O1` (centres undefined): less than 3.70 and less than 3.70.
Regarding `C1COC2(CNCC3(CNC2)OCCO3)O1`, the pEC50 is less than 3.70 and the pIC50 is 3.76.
Take `COc1cc(CC2C(O)C3CCN2CC3)cc(OC)c1OC` (centres undefined): the result was inactive.
Consider `O=C(Sc1c(-c2ccccc2)c(=O)n(-c2ccccc2)c(=S)n1-c1ccccc1)c1cccs1`, for which the pEC50 was less than 3.70 and the pIC50 is 4.66.
The matching figures for `CCOC(=O)c1c[nH]c2oc(/C=N/N3CC(CN4CCOCC4)OC3=O)cc2c1=O` (centres undefined): less than 3.52 and 3.79.
As to `Clc1cccc(C2SCc3nc4ccccc4n32)c1Cl` (centres undefined), the result was inactive.
Regarding `COc1cc(C2C(Cl)C(=O)N2NC(=O)c2ccc(N)cc2)ccc1O` (centres undefined), the pEC50 is less than 3.70 and the pIC50 is 4.27.
The matching figures for `O=C1N(c2ccccc2)C2(O)C(=O)c3ccccc3C2(O)N1c1ccccc1` (centres undefined): less than 3.17 and 3.96.
With `COc1cccc(C2C(C(=O)O)=C(CO)Oc3cc4c(cc32)OCO4)c1OC` (centres undefined), the result was inactive.
Consider `COC1C=CC(C(=O)[N+]2=Cc3[nH]c4ccccc4c3CC2)O1` (centres undefined), for which the pEC50 is less than 3.60 and the pIC50 is 4.07.
On the same counts, the results for `CCc1c(C)c(C#N)c(=S)n(C2OC(CO)C(O)C(O)C2O)c1C` (centres undefined) are less than 3.70 and less than 3.70.
For `COC(=O)C1(C)OC(C)=NC1(C(=O)OC)C(=O)OC` (centres undefined), the pEC50 was less than 3.70 and the pIC50 was less than 3.70.
Take `[Cl][Ni+2][Cl].[NH-]CCN1CC1`: the pEC50 was less than 3.70 and the pIC50 is 4.39.
With `CCOc1ccccc1-c1nc2c(s1)C(=O)c1ccccc1C2=O`, the pEC50 was less than 3.70 and the negative logarithm of the IC50 (pIC50) is 4.49.
Take `CC1=C/C(=C(/c2cccc(S(=O)(=O)O)c2)c2cc(C)c(O)c(C(=O)O)c2)C=C(C(=O)O)C1=O`: the result was inactive.
`N#Cc1nn(-c2ccc(Cl)cc2)c(N)c2c(=N)n3nc(-c4ccccc4)cc3nc12`: the pEC50 is less than 5.04 and the pIC50 was less than 5.04.
Consider `COc1ccc(C2c3cn[nH]c3CC3CCCCC32)cc1` (centres undefined), for which the pEC50 is less than 3.70 and the negative-log IC50 (pIC50) was 4.46.
As for `CN(C)CCc1c2c(nc3ccccc13)C(=O)c1ccccc1C2=O`, the pEC50 was less than 3.70 and the pIC50 is 6.03.
On the same counts, the results for `O=C1/C(=C/c2ccc(O)cc2)CCCC1CN1CCCCC1` (centres undefined) are less than 5.70 and 5.73.
On the same counts, the results for `COC(=O)C1CC=CCCC1=O` (centres undefined) are less than 3.11 and 3.56.
On the same counts, the results for `O=c1[nH]c2ccccc2c(O)c1N=Nc1ccc(S(=O)(=O)O)cc1` are less than 3.70 and less than 3.70.
As to `Cc1cc2c(cc1-c1cc3c(cc1C)C(C(C)C)=C(O)C(=O)/C3=C\Nc1nc(-c3ccccc3)cs1)/C(=C/Nc1nc(-c3ccccc3)cs1)C(=O)C(O)=C2C(C)C`, the pEC50 was less than 4.00 and the pIC50 is 4.88.
The matching figures for `Cn1c(=O)c(=O)n(C)c2cc(Cl)c(Cl)cc21`: less than 3.70 and less than 3.70.
`CCc1cc(-c2ccco2)c(C#N)c(=S)n1C1OC(COC(C)=O)C(OC(C)=O)C(OC(C)=O)C1OC(C)=O` (centres undefined): the pEC50 was less than 3.70 and the pIC50 was 4.10.
The matching figures for `Brc1ccc(-c2nnc(-c3nn(-c4ccccc4)c4nc5ccccc5nc34)o2)cc1`: less than 5.09 and less than 5.09.
`Oc1ccc(C2=CSC3=NCCN23)cc1`: the result was inactive.
In the case of `CCOC(=O)C1CCCC1S(=O)(=O)c1ccc(C)cc1` (centres undefined), the pEC50 was less than 3.70 and the negative-log IC50 (pIC50) was less than 3.70.
For `CC(=O)Nc1ccc2oc3ccc(Cl)cc3c(=O)c2c1`, the pEC50 was less than 3.76 and the pIC50 was 4.11.
The matching figures for `CCOC(=O)C(=O)/C(=C/N1C(=O)CC(=O)NC1=S)C(=O)OCC`: less than 3.70 and less than 3.70.
The matching figures for `O=C(Cn1c2ccc(Br)cc2c2nc3ccccc3nc21)NNC(=S)NC1CCCCC1`: less than 3.70 and 4.44.
On the same counts, the results for `Cc1ccc(S(=O)c2sccc2C=O)cc1` (centres undefined) are less than 3.70 and 5.01.
As for `CCCC(C(=O)OC)C1N=C(NC#N)N(Cc2ccccc2)C1=O` (centres undefined), the pEC50 is less than 3.96 and the negative-log IC50 (pIC50) is less than 3.96.
For `OC[C@@H](O)[C@H]1NC[C@@H](O)[C@H]1O`, the pEC50 was less than 3.70 and the pIC50 was less than 3.70.
`CN1CCN(C2=NCCO2)CC1`: the pEC50 was less than 3.70 and the pIC50 is less than 3.70.
Take `O=S(=O)(O)c1cc(Cl)cc(Cc2cc(Cl)cc(S(=O)(=O)O)c2O)c1O`: the outcome was active.
With `O=C1c2c(O)cc(O)cc2OC(c2ccc(O)cc2O)C1O` (centres undefined), the pEC50 was less than 3.70 and the pIC50 is 4.03.
The matching figures for `NC(=S)NN=C1CSSC1`: less than 3.70 and 4.93.
Consider `CN(C)c1cccc2c(S(=O)(=O)NCC(=O)O)cccc12`, for which the result was inactive.
Turning to `CC(C)c1ccc(C(c2c(O)c3ccccc3oc2=O)c2c(O)c3ccccc3oc2=O)cc1`, the pEC50 is less than 3.70 and the negative logarithm of the IC50 (pIC50) was 4.52.
As to `C[C@@H]1C[C@H]2[C@@H]3CCC4=CC(=O)C=C[C@]4(C)[C@@]3(F)[C@@H](O)C[C@]2(C)C1=O`, the result was inactive.
`COc1ccc(CC(CC(=O)O)NC(C)=O)cc1` (centres undefined): the pEC50 is less than 3.00 and the pIC50 was less than 3.00.
As for `CCN(CC)CC(C(=O)Nc1c(C)cccc1C)/C(C)=N/NC(N)=S` (centres undefined), the pEC50 was less than 4.43 and the pIC50 was less than 4.43.
For `O=S1(=O)CCC(OC2CCS(=O)(=O)C2)C1` (centres undefined), the pEC50 was less than 3.01 and the negative-log IC50 (pIC50) is less than 3.01.
With `Clc1ccc2c(Cl)ncnc2c1I`, the pEC50 was less than 4.51 and the pIC50 was 5.13.
The matching figures for `COc1ccc(Cc2c3cc(OC)c(OC)cc3cc[n+]2C)cc1`: less than 3.26 and 3.97.
The matching figures for `COC(=O)/C=C\C(=O)/C=C/COC(=O)c1ccccc1`: less than 3.88 and 4.68.
On the same counts, the results for `Cc1cc(NC2=CC(=O)C(=O)c3ccccc32)no1` are less than 3.70 and 5.23.

(Values after PubChem BioAssay AID179 (DTP/NCI, 2004).)
